Several values for one entry are separate records, joined by “and”; a condition that tells them apart may be missing. Equal values may be shown once.
Tests used:
BLK = target: T1, BLK (Homo sapiens, UniProt P51451); assay: BLK levels by Western blot in Ramos cells; assay type: cell-based
T1 construct: endogenous in cells; host or cells: Ramos
Description: (§1) Cells were washed with PBS and lysed in lysis buffer (50 mM Tris-HCl, pH 7.4, 150 mM NaCl, 1% Triton X-100, 1% sodium deoxycholate, 0.1% SDS) with complete protease inhibitor cocktail (Roche, 11836170001) for 30 min on ice. For Ramos cells, cell pellets were lysed in lysis buffer (50 mM Tris-HCl, pH 8, 150 mM NaCl, 1% NP-40, 0.5% sodium deoxycholate) with complete protease inhibitor cocktail. After centrifugation at 16,000 x g, the supernatant was transferred into a new tube and the protein concentration was determined by DC protein assay (BIO-RAD, 5000116). Proteins were separated by SDS-PAGE and transferred to a PVDF membrane (Thermo scientific, 0.45 μm, 88518). For PDEδ, BRD2, GAPDH, BRD4, Vinculin and BTK, the membranes were blocked with Intercept® Blocking Buffer (LI-COR Biosciences, 927-70001) at room temperature for 1 h. The primary antibodies for these proteins were diluted with Intercept® Blocking Buffer (1:500 for PDEδ, 1:3000 for Vinculin, and 1:1000 for other proteins) and incubated with the membranes overnight at 4 °C. Membranes were washed with PBS + 0.1% Tween 20 (PBS-T) five times and incubated with secondary antibodies conjugated to IRDye® Infrared Fluorescent Dyes (1:5000, LI-COR Biosciences) at room temperature for 1 h with protection from light. After washing the membrane, signals were visualized using the ChemiDoc MP Imaging System (BIO-RAD Laboratories). For detection of LC3B, BRD3, BLK, DCAF11, DDB1 RBX1, FIP200, V5- and FLAG-Tag the membranes were blocked with 5% milk in PBS-T at room temperature for 1 h. The primary antibodies for these proteins were diluted in 5% milk in PBS-T buffer (1:200 for BRD3, 1:1000 for other proteins) and incubated with the membranes overnight at 4 °C. Membranes were washed with PBS-T five times and incubated with HRP secondary antibodies (1:1500) at room temperature for 1 h. After washing the membrane, protein detection was performed using Western blotting detection reagent (Thermo Scientific, 34095) and the ChemiDoc MP Imaging System (BIO-RAD). Relative band intensities were quantified using Image Lab (BIO-RAD).

BTK = target: T2, BTK (Homo sapiens, UniProt Q06187); assay: BTK levels by Western blot in Ramos cells; assay type: cell-based; details: 6 h
T2 construct: endogenous in cells; host or cells: Ramos
T2 sequence (Q06187 whole entry): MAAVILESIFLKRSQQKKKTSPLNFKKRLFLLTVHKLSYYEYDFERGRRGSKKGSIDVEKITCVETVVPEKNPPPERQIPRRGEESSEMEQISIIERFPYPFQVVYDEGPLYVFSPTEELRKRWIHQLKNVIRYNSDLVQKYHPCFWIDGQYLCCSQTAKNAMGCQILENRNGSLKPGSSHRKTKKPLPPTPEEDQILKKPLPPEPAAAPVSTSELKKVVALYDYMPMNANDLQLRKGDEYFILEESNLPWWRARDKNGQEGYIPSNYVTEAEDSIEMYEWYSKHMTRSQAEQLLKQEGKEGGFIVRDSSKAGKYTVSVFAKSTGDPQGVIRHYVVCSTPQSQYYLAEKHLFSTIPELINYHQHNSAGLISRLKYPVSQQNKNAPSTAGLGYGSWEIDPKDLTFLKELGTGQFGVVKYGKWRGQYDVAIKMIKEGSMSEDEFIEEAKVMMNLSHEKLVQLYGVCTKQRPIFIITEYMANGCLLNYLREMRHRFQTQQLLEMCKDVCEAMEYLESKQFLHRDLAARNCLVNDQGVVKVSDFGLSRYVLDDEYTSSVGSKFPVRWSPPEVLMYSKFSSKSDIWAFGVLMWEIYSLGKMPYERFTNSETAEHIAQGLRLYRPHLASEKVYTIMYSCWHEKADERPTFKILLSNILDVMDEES
Description: as §1, with “After washing the membrane, signals were visualized using the ChemiDoc MP Imaging System (BIO-RAD Laboratories). For detection of LC3B, BRD3, BLK, DCAF11, DDB1 RBX1, FIP200, V5- and FLAG-Tag the membranes were blocked with 5% milk in PBS-T at room temperature for 1 h. The primary antibodies for these proteins were diluted in 5% milk in PBS-T buffer (1:200 for BRD3, 1:1000 for other proteins) and incubated with the membranes overnight at 4 °C. Membranes were washed with PBS-T five times and incubated with HRP secondary antibodies (1:1500) at room temperature for 1 h. After washing the membrane, protein detection was performed using Western blotting detection reagent (Thermo Scientific, 34095) and the ChemiDoc MP Imaging System (BIO-RAD).” left out

BRD2 = assay: In-Cell Western for BRD2 levels in Hep G2 cells; assay type: cell-based; details: then 9 (10 μM, 4 h)
Description: Hep G2 cells were seeded in 96-well plates and incubated for 24 h. Compounds were added for the indicated time at the indicated concentration. Cells were then washed once with PBS and fixed with 4% paraformaldehyde for 30 min at room temperature. The fixed cells were permeabilized with 0.5 % Triton-X100 for 15 min followed by block with Intercept® Blocking Buffer (LI-COR Biosciences, 927-70001) for 1 h at room temperature. Primary antibodies for BRD2 (1:800) and Vinculin (1:2000) were diluted with LI-COR buffer and incubated with the cells at 4 °C overnight. Cells were washed with PBS-T, and the secondary antibodies conjugated to IRDye (1:1000, LI-COR Biosciences) were added to the cells for 1 h at room temperature. After washing the cells, the signal was recorded with the Odyssey® CLx Infrared Imaging System (LI-COR Biosciences) and the protein levels were analyzed by Image Studio (LI-COR Biosciences). BRD2 protein levels were normalized to the levels of reference protein vinculin.

SIRT1 = target: T3, SIRT1 (Homo sapiens, UniProt Q96EB6); assay: SIRT activity assay SIRT1; assay type: biochemical; details: SIRT1 activity in presence of 3 µM compound 42
T3 construct: purchased BPS Bioscience 50081 (assay kit)
T3 sequence (Q96EB6 whole entry): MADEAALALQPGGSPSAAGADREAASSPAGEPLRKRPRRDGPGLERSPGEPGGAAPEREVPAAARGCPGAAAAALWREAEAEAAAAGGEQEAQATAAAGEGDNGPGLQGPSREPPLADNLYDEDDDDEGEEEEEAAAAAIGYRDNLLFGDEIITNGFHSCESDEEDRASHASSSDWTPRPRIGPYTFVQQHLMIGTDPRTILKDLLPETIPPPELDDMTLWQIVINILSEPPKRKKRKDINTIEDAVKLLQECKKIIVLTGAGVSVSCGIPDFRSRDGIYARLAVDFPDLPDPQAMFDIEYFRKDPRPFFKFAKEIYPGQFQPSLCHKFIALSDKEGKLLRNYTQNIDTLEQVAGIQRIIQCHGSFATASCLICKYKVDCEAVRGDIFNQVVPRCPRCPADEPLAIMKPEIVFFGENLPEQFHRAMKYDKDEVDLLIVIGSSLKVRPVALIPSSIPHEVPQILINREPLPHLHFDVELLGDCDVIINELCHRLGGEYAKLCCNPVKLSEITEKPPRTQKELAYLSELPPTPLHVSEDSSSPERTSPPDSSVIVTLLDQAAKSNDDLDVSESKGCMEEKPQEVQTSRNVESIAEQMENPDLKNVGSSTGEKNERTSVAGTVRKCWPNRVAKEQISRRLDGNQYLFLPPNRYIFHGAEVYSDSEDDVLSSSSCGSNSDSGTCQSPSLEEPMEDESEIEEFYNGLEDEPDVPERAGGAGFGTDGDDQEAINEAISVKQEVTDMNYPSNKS
Description: (§2) In vitro enzymatic SIRT assays were performed by BPS Bioscience for SIRT1, SIRT2, SIRT3, SIRT5 and SIRT6 using the respective SIRT Fluorogenic Assay Kit (BPS Bioscience, catalog numbers 50081, 50087, 50088, 50085 and 50022). The compound was pre-incubated in for 30 min at room temperature in a mixture containing SIRT assay buffer, 5 μg BSA, SIRT enzyme. Afterwards, the enzymatic reaction was initiated by the addition of SIRT substrate to a final concentration of 10 μM. The enzymatic reaction proceeded for 30 min at 37 °C followed by the addition of 2 x SIRT Developer and incubation at room temperature for 15 min. Fluorescence intensity was measured at an ex/em 360/460 nm using a Tecan Infinite M1000 microplate reader.

SIRT2 = target: T4, SIRT2 (Homo sapiens, UniProt Q8IXJ6); assay: SIRT activity assay SIRT2; assay type: biochemical; details: SIRT2 activity in presence of 3 µM compound 42
T4 construct: purchased BPS Bioscience 50087 (assay kit)
T4 sequence (Q8IXJ6 whole entry): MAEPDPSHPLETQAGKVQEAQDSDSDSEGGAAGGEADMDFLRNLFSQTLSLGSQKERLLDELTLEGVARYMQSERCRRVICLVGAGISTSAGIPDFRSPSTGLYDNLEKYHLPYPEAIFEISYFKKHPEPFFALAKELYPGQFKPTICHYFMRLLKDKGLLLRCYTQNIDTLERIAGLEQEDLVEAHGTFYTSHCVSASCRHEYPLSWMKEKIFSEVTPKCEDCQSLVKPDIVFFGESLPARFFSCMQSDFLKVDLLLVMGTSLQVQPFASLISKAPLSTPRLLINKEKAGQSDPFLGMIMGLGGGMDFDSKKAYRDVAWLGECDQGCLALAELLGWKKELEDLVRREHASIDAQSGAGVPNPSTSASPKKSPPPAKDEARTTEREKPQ
Description: as §2

SIRT3 = target: T5, SIRT3 (Homo sapiens, UniProt Q9NTG7); assay: SIRT activity assay SIRT3; assay type: biochemical; details: SIRT3 activity in presence of 3 µM compound 42
T5 construct: purchased BPS Bioscience 50088 (assay kit)
T5 sequence (Q9NTG7 whole entry): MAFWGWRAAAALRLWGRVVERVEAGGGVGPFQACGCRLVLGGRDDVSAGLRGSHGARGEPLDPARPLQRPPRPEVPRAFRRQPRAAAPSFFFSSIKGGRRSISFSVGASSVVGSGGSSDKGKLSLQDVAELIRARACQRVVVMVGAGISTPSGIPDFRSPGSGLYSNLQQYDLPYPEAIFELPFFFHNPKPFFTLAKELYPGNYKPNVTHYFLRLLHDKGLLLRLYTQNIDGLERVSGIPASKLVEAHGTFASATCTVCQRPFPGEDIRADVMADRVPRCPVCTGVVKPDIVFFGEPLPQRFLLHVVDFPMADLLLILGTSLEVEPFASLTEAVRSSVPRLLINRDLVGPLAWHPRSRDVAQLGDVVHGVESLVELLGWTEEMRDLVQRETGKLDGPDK
Description: as §2

SIRT5 = target: T6, SIRT5 (Homo sapiens, UniProt Q9NXA8); assay: SIRT activity assay SIRT5; assay type: biochemical; details: SIRT5 activity in presence of 3 µM compound 42
T6 construct: purchased BPS Bioscience 50085 (assay kit)
T6 sequence (Q9NXA8 37-310): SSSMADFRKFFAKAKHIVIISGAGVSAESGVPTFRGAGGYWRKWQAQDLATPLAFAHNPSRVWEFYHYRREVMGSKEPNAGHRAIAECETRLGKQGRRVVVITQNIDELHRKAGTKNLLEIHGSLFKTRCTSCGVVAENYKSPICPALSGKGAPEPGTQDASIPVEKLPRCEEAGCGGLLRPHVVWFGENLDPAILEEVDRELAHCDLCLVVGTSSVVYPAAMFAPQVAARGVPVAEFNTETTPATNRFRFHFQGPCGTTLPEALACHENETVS
Description: as §2

SIRT6 = target: T7, SIRT6 (Homo sapiens, UniProt Q8N6T7); assay: SIRT activity assay SIRT6; assay type: biochemical; details: SIRT6 activity in presence of 3 µM compound 42
T7 construct: purchased BPS Bioscience 50022 (assay kit)
T7 sequence (Q8N6T7 whole entry): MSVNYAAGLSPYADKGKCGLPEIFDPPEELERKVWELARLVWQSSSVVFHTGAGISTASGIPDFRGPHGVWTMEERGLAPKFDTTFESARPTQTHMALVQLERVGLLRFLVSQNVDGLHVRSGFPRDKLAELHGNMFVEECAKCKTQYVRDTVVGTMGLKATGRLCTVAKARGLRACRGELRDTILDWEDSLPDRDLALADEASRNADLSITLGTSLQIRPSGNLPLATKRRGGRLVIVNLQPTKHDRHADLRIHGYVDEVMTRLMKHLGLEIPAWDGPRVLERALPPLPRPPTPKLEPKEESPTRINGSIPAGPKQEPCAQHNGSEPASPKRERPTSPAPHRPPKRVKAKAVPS
Description: as §2

[1] = tested on: wildtype and mutant 482 kinases; assay: Kinase profiling (SelectScreen); assay type: biochemical; details: 10 µM; panel of 482 wildtype and mutant kinases
Description: Compound 42 was profiled in duplicate at 10 µM against wildtype and mutant 482 kinases using the SelectScreen Kinase profiling services (ThermoFisher Scientific, USA) using enzymatic assays (Z’-Lyte and Adapta technology) or binding assays (LanthaScreen Eu kinase binding assays) (see https://www.thermofisher.com/de/de/home/products-and-services/services/custom-services/screening-and-profiling-services/selectscreen-profiling-service/selectscreen-kinase-profiling-service.html).

T1 sequence (P51451 whole entry): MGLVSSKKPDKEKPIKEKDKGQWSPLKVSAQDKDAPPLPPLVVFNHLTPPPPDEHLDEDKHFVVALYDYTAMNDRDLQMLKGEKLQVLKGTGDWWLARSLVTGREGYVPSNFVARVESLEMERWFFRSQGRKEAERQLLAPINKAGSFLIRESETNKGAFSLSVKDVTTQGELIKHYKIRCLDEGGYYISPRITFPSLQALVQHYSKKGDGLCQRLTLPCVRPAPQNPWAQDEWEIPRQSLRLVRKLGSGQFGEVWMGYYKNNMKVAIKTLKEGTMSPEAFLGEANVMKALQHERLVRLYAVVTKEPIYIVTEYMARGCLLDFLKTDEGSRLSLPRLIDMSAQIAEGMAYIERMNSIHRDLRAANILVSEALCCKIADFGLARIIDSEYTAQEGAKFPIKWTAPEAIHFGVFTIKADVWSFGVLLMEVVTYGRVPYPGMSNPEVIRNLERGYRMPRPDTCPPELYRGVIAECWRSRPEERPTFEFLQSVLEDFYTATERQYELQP

Nc1ncnc2c1c(-c1ccc(Oc3ccccc3)cc1)nn2C1CCN(CC(=O)NCCOCCOCCOCCOCCNC(=O)COc2c(Br)cc(/C=C3\C(=O)Nc4ccc(Br)cc43)cc2Br)CC1 [Compound 13]
BLK/Vinculin intensity (relative to DMSO control group) (BLK; 3 μM, 6 h, Fig. 2g): 37.145 and 35.6045 and 46.4487
BLK/Vinculin intensity (relative to DMSO control group) (BLK; 10 μM, 6 h, Fig. 2g): 21.4399 and 23.7367 and 36.6727
BLK/Vinculin intensity (relative to DMSO control group) (BLK; 30 μM, 6 h, Fig. 2g): 37.0963 and 39.3424 and 67.6199
reduction of BLK levels (BLK; Ramos cells, 6 h): 70%
BLK/Vinculin intensity (relative to DMSO control group) (BLK; Ramos cells, pretreated CFZ 1 μM 40 min, then 10 μM, 6h, Fig. 2h): 73.6122 and 85.1867 and 106.763
BLK/Vinculin intensity (relative to DMSO control group) (BLK; Ramos cells, pretreated CQ 50 μM 40 min, then 10 μM, 6h, Fig. 2h): 24.1946 and 36.2698 and 40.4347
BLK/Vinculin intensity (relative to DMSO control group) (BLK; Ramos cells, pretreated MLN4924 1 μM 40 min, then 10 μM, 6h, Fig. 2h): 110.614 and 82.1333 and 144.155
reduction of BTK levels (BTK): 50%

O=C1Nc2ccc(Br)cc2C1=Cc1cc(Br)c(OCCO)c(Br)c1 [Compound 42]
BRD2/Vinculin intensity (relative to control group) (BRD2; Hep G2 cells, pretreated with compound at 30 μM 1 h, single repeats, Fig. 4h): 46.6052 and 52.1075 and 59.9094 and 63.5387
Value (Mean ± SD): Relative BRD2 levels remaining in Hep G2 cells after treatment with compounds followed by treatment with 9, with DMSO control for normalization (BRD2; qualitative ICW assay, pretreated at 30 μM 1 h, Supplementary Table 1): 55.54 ± 6.61
Activity [%] (N=1) (SIRT1): 93%
Activity [%] (N=2) (SIRT1): 97%
Activity [%] (N=1) (SIRT2): 104%
Activity [%] (N=2) (SIRT2): 111%
Activity [%] (N=1) (SIRT3): 67%
Activity [%] (N=2) (SIRT3): 67%
Activity [%] (N=1) (SIRT5): 95%
Activity [%] (N=2) (SIRT5): 98%
Activity [%] (N=1) (SIRT6): 87%
Activity [%] (N=2) (SIRT6): 90%
number of wildtype kinases inhibited by more than 50 % [1]: seven
